# US11331314B2, “Amine substituted triazole derivatives and uses thereof” (Bayer Pharma Aktiengesellschaft, priority 2017, dated 2022)
# How the values were obtained:
# [1] = target: T1, human V2 receptor (Homo sapiens, UniProt P30518); assay: Cellular in vitro assay for determining vasopressin receptor activity, V2 receptor cell line (CRE-luciferase); format: cell-based; conditions: CHO cell line transfected with the human V2 receptor; agonist [Arg8]-vasopressin at EC50 concentration; read-out: IC50 hV2
# T1 construct: expressed in transfected cells; host or cells: CHO K1 (ATCC) expressing firefly luciferase under a CRE-responsive promoter
# T1 sequence (P30518 whole entry): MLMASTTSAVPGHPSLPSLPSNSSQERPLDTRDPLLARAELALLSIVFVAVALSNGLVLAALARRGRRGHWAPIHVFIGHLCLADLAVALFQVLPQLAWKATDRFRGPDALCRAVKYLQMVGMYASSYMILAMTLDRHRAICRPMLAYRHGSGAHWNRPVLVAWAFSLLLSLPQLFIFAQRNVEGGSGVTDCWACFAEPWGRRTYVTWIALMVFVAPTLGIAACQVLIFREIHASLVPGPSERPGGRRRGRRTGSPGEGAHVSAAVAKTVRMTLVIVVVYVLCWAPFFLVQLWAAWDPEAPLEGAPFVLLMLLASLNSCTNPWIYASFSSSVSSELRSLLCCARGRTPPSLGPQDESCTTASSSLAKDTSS
# Procedure: (§1) B-1. Cellular In Vitro Assay for Determining Vasopressin Receptor Activity
# (§2) The identification of agonists and antagonists of the V1a and V2 vasopressin receptors from humans, rats and dogs as well as the quantification of the activity of the compounds of the invention is carried out using recombinant cell lines. These cell lines originally derive from a hamster's ovary epithelial cell (Chinese Hamster Ovary, CHO K1, ATCC: American Type Culture Collection, Manassas, Va. 20108, USA). The test cell lines constitutively express the human, rat or dog V1a or V2 receptors. In case of the Gαq-coupled V1a receptors, cells are also stably transfected with a modified form of the calcium-sensitive photoproteins aequorin (human and rat V1a) or obelin (dog V1a), which, after reconstitution with the cofactor coelenterazine, emit light when there are increases in free calcium concentrations [Rizzuto R, Simpson A W, Brini M, Pozzan T, Nature 358, 325-327 (1992); Illarionov B A, Bondar V S, Illarionova V A, Vysotski E S, Gene 153 (2), 273-274 (1995)]. The resulting vasopressin receptor cells react to stimulation of the recombinantly expressed V1a receptors by intracellular release of calcium ions, which can be quantified by the resulting photoprotein luminescence. The Gs-coupled V2 receptors are stably transfected into cell lines expressing the gene for firefly luciferase under control of a CRE-responsible promoter. Activation of V2 receptors induces the activation of the CRE-responsive promoter via cAMP increase, thereby inducing the expression of firefly luciferase. The light emitted by photoproteins of V1a cell lines as well as the light emitted by firefly luciferase of V2 cell lines corresponds to the activation or inhibition of the respective vasopressin receptor. The bioluminescence of the cell lines is detected using a suitable luminometer [Milligan G, Marshall F, Rees S, Trends in Pharmacological Sciences 17, 235-237 (1996)].
# Vasopressin V2 Receptor Cell Lines:
# On the day before the assay, the cells are plated out in culture medium (DMEM/F12, 2% FCS, 2 mM glutamine, 10 mM HEPES) in 384-well microtiter plates and kept in a cell incubator (96% humidity, 5% v/v CO2, 37° C.). On the day of the assay, test compounds in various concentrations and the agonist [Arg^8]-vasopressin at EC50 concentration are added together to the wells, and plates are incubated for 3 hours in a cell incubator. Upon addition of the cell lysis reagent Triton™ and the substrate luciferin, luminescence of firefly luciferase is measured in a luminometer.
# (§3) Table 1A below lists individual IC50 values for the compounds of the invention (including racemic mixtures as well as separated enantiomers) that were obtained from cell lines transfected with the human V1a or V2 receptor: […]
# [2] = target: human V1a receptor (Homo sapiens, UniProt P37288); assay: Cellular in vitro assay for determining vasopressin receptor activity, V1a receptor cell line (photoprotein luminescence); format: cell-based; conditions: for IC50: CHO cell line transfected with the human V1a receptor, agonist [Arg8]-vasopressin at EC50 concentration, read-out: IC50 hV1a; for ratio IC50 hV2/hV1a: selectivity ratio of the cellular IC50 values
# human V1a receptor, sequence (P37288 whole entry): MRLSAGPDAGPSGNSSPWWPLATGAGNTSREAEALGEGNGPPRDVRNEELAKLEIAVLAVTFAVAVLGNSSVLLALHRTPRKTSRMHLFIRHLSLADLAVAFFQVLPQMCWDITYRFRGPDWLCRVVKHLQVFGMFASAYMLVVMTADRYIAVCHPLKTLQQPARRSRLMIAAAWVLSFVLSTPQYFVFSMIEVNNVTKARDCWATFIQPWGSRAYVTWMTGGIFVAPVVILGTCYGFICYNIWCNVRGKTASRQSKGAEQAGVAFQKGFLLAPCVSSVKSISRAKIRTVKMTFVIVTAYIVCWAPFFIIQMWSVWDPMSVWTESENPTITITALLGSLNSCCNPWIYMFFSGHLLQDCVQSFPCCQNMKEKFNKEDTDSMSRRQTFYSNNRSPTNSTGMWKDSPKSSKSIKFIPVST
# Procedure: as §1, §2
# Vasopressin V1a Receptor Cell Lines:
# On the day before the assay, the cells are plated out in culture medium (DMEM/F12, 2% FCS, 2 mM glutamine, 10 mM HEPES, 5 μg/ml coelenterazine) in 384-well microtiter plates and kept in a cell incubator (96% humidity, 5% v/v CO2, 37° C.). On the day of the assay, test compounds in various concentrations are placed for 10 minutes in the wells of the microtiter plate before the agonist [Arg^8]-vasopressin at EC50 concentration is added. The resulting light signal is measured immediately in a luminometer.
# as §3
Structure (SMILES),IC50 [1],IC50 [2],ratio IC50 hV2/hV1a [2]
"C[C@@H](O)CNc1nc(Cn2nc(-c3ccc(Cl)cc3)n(C[C@H](O)C(F)(F)F)c2=O)nn1-c1ccccc1Cl [Example 49, 5-(4-Chlorophenyl)-2-{[1-(2-chlorophenyl)-5-{[(2R)-2-hydroxypropyl]amino}-1H-1,2,4-triazol-3-yl]methyl}-4-[(2S)-3,3,3-trifluoro-2-hydroxypropyl]-2,4-dihydro-3H-1,2,4-triazol-3-one]",1.94 nM,0.63 nM,3.1
"O=c1n(Cc2nc(NCC(O)C(F)(F)F)n(-c3ccccc3Cl)n2)nc(-c2ccc(Cl)cc2)n1C[C@H](O)C(F)(F)F (mixture of isomers) [Example 53, 5-(4-Chlorophenyl)-2-{[1-(2-chlorophenyl)-5-{[3,3,3-trifluoro-2-hydroxypropyl]amino}-1H-1,2,4-triazol-3-yl]methyl}-4-[(2S)-3,3,3-trifluoro-2-hydroxypropyl]-2,4-dihydro-3H-1,2,4-triazol-3-one]",1.85 nM,0.52 nM,3.6
"CC1(O)CCN(c2nc(Cn3nc(-c4ccc(Cl)cc4)n(C[C@H](O)C(F)(F)F)c3=O)nn2-c2ccccc2Cl)C1 (single isomer, unassigned) [Example 30]",2.7 nM,0.38 nM,7.2
"COC(C)(C)CNc1nc(Cn2nc(-c3ccc(Cl)cc3)n(C[C@H](O)C(F)(F)F)c2=O)nn1-c1ccccc1Cl [Example 4, 5-(4-Chlorophenyl)-2-({1-(2-chlorophenyl)-5-[(2-methoxy-2-methylpropyl)amino]-1H-1,2,4-triazol-3-yl}methyl)-4-[(2S)-3,3,3-trifluoro-2-hydroxypropyl]-2,4-dihydro-3H-1,2,4-triazol-3-one]",4.77 nM,2.3 nM,2.1
"CC(C)(N)CNc1nc(Cn2nc(-c3ccc(Cl)cc3)n(C[C@H](O)C(F)(F)F)c2=O)nn1-c1ncccc1F [Example 92, 2-({5-[(2-Amino-2-methylpropyl)amino]-1-(3-fluoropyridin-2-yl)-1H-1,2,4-triazol-3-yl}methyl)-5-(4-chlorophenyl)-4-[(2S)-3,3,3-trifluoro-2-hydroxypropyl]-2,4-dihydro-3H-1,2,4-triazol-3-one]",3050 nM,41.5 nM,73.5
"CC(C)(CNc1nc(Cn2nc(-c3ccc(Cl)cc3)n(C[C@H](O)C(F)(F)F)c2=O)nn1-c1ccccc1Cl)C(N)=O [Example 5, 3-{[1-(2-Chlorophenyl)-3-({3-(4-chlorophenyl)-5-oxo-4-[(2S)-3,3,3-trifluoro-2-hydroxypropyl]-4,5-dihydro-1H-1,2,4-triazol-1-yl}methyl)-1H-1,2,4-triazol-5-yl]amino}-2,2-dimethylpropanamide]",3.8 nM,0.64 nM,6.0
"CCOC(=O)CNc1nc(Cn2nc(-c3ccc(Cl)cc3)n(C[C@H](O)C(F)(F)F)c2=O)nn1-c1cccc(Cl)c1 [Example 115, Ethyl N-[1-(3-chlorophenyl)-3-({3-(4-chlorophenyl)-5-oxo-4-[(2S)-3,3,3-trifluoro-2-hydroxypropyl]-4,5-dihydro-1H-1,2,4-triazol-1-yl}methyl)-1H-1,2,4-triazol-5-yl]glycinate]",2.07 nM,5.86 nM,0.4
"CC1(C)CN(c2nc(Cn3nc(-c4ccc(Cl)cc4)n(C[C@H](O)C(F)(F)F)c3=O)nn2-c2ncccc2Cl)CCN1 [Example 122, 5-(4-Chlorophenyl)-2-{[1-(3-chloropyridin-2-yl)-5-(3,3-dimethylpiperazin-1-yl)-1H-1,2,4-triazol-3-yl]methyl}-4-[(2S)-3,3,3-trifluoro-2-hydroxypropyl]-2,4-dihydro-3H-1,2,4-triazol-3-one]",1550 nM,0.97 nM,1606.2
"NC(=O)C1CN(c2nc(Cn3nc(-c4ccc(Cl)cc4)n(C[C@H](O)C(F)(F)F)c3=O)nn2CCC(F)(F)F)C1 [Example 113, 1-[3-({3-(4-Chlorophenyl)-5-oxo-4-[(2S)-3,3,3-trifluoro-2-hydroxypropyl]-4,5-dihydro-1H-1,2,4-triazol-1-yl}methyl)-1-(3,3,3-trifluoropropyl)-1H-1,2,4-triazol-5-yl]azetidine-3-carboxamide]",360 nM,37 nM,9.7

# The remaining compounds from weak to strong by IC50 [1], led by results:
IC50 [1],IC50 [2],ratio IC50 hV2/hV1a [2],Structure (SMILES)
17.1 nM,7.79 nM,2.2,"O=c1n(Cc2nc(N3CCOCC3)n(-c3cccc(F)c3)n2)nc(-c2ccc(Cl)cc2)n1C[C@H](O)C(F)(F)F [Example 119, 5-(4-Chlorophenyl)-2-{[1-(3-fluorophenyl)-5-(morpholin-4-yl)-1H-1,2,4-triazol-3-yl]methyl}-4-[(2S)-3,3,3-trifluoro-2-hydroxypropyl]-2,4-dihydro-3H-1,2,4-triazol-3-one]"
6.05 nM,0.48 nM,12.6,"O=C1NCC2(CN(c3nc(Cn4nc(-c5ccc(Cl)cc5)n(C[C@H](O)C(F)(F)F)c4=O)nn3-c3ccccc3Cl)C2)N1 [Example 35, 2-[1-(2-Chlorophenyl)-3-({3-(4-chlorophenyl)-5-oxo-4-[(2S)-3,3,3-trifluoro-2-hydroxypropyl]-4,5-dihydro-1H-1,2,4-triazol-1-yl}methyl)-1H-1,2,4-triazol-5-yl]-2,5,7-triazaspiro[3.4]octan-6-one]"
2.45 nM,1.2 nM,2.0,"O=C1NCC(CNc2nc(Cn3nc(-c4ccc(Cl)cc4)n(C[C@H](O)C(F)(F)F)c3=O)nn2-c2ccccc2Cl)O1 (mixture of isomers) [Example 12, 5-(4-Chlorophenyl)-2-{[1-(2-chlorophenyl)-5-({[2-oxo-1,3-oxazolidin-5-yl]methyl}amino)-1H-1,2,4-triazol-3-yl]methyl}-4-[(2S)-3,3,3-trifluoro-2-hydroxypropyl]-2,4-dihydro-3H-1,2,4-triazol-3-one]"
2.25 nM,0.35 nM,6.5,"O=c1n(Cc2nc(N3CCC(O)(C(F)(F)F)C3)n(-c3ccccc3Cl)n2)nc(-c2ccc(Cl)cc2)n1C[C@H](O)C(F)(F)F (mixture of isomers) [Example 13, 5-(4-Chlorophenyl)-2-({1-(2-chlorophenyl)-5-[3-hydroxy-3-(trifluoromethyl)pyrrolidin-1-yl]-1H-1,2,4-triazol-3-yl}methyl)-4-[(2S)-3,3,3-trifluoro-2-hydroxypropyl]-2,4-dihydro-3H-1,2,4-triazol-3-one]"
1.28 nM,0.35 nM,3.7,"CC(N)(CNc1nc(Cn2nc(-c3ccc(Cl)cc3)n(C[C@H](O)C(F)(F)F)c2=O)nn1-c1ccccc1Cl)C(F)(F)F (mixture of isomers) [Example 27, 2-{[5-{[2-Amino-3,3,3-trifluoro-2-methylpropyl]amino}-1-(2-chlorophenyl)-1H-1,2,4-triazol-3-yl]methyl}-5-(4-chlorophenyl)-4-[(2S)-3,3,3-trifluoro-2-hydroxypropyl]-2,4-dihydro-3H-1,2,4-triazol-3-one]"
0.86 nM,0.43 nM,2.0,"O=c1n(Cc2nc(NCCN3CCCCS3(=O)=O)n(-c3ccccc3Cl)n2)nc(-c2ccc(Cl)cc2)n1C[C@H](O)C(F)(F)F [Example 25, 5-(4-Chlorophenyl)-2-{[1-(2-chlorophenyl)-5-{[2-(1,1-dioxido-1,2-thiazinan-2-yl)ethyl]amino}-1H-1,2,4-triazol-3-yl]methyl}-4-[(2S)-3,3,3-trifluoro-2-hydroxypropyl]-2,4-dihydro-3H-1,2,4-triazol-3-one]"
